GI50 data for 7 compounds are collected here from patent US20260365670A1, “EGFR INHIBITORS AND USES THEREOF” (DIZAL (JIANGSU) PHARMACEUTICAL CO., LTD., priority 2022, published 2026).

The subject of assay [1] is Ba/F3 cells expressing EGFR mutations. Kind of assay: Cell proliferation assay, Ba/F3 cells expressing EGFR mutations (CellTiter-Glo, 72 hours). The format is cell-based. The settings on record: CellTiter-Glo. As to the method:
(§1) Biological Example 2: Cell Proliferation Assays
(§2) Ba/F3 cells expressing EGFR mutations were seeded in 384-well plates at 5000 cells/well in RPMI1640 medium containing […]. PC-9 at 500 cells/well was seeded into 384-well plates in RPMI1640 medium with 10% FBS. After overnight incubation, the assay plates were dosed with compounds at a series of concentrations. Alongside dosing the assay plates, the day 0 plate was processed using CellTiter-Glo® Luminescent Cell Viability Assay (Promega) to measure the number of viable cells (G0). The assay plates were further incubated for 72 hours and the number of viable cells (G3) was measured. The percentage of proliferation was calculated as: […]=100×(G3 value of sample well−G0 value)/(G3 value of DMSO control−G0 value). The concentration of compound producing 50% proliferation inhibition (GI50) was further calculated in best-fit curves using XLFit software. N/A=not available.
A general note: ATP-based viability assays read luminescence as a measure of living cells.

The test system of the next assay is PC-9. Kind of assay: Cell proliferation assay, PC-9 cells (CellTiter-Glo, 72 hours). The format is cell-based. The conditions noted are these: PC9 cells, CellTiter-Glo, read-out: PC9 GI50. As to the method:
as §1, §2

[2] abbreviates: BaF3 cells, EGFR DEL19-C797S, read-out: DEL19-C797S/BaF3 GI50.
Where [3] appears, read: BaF3 cells, EGFR DEL19-T790-C797S, read-out: DEL19-T790-C797S/BaF3 GI50.
Where [4] appears, read: BaF3 cells, EGFR L858R, read-out: L858R/BaF3 GI50.
Where [5] appears, read: BaF3 cells, EGFR L858R-C797S, read-out: L858R-C797S/BaF3 GI50.
Setting [6] is: BaF3 cells, EGFR L858R-T790-C797S, read-out: L858R-T790-C797S/BaF3 GI50.
Where [7] appears, read: BaF3 cells, EGFR L858R-T790M, read-out: L858R-T790M/BaF3 GI50.
Setting [8] is: EGFR DEL19-T790M, read-out: DEL19-T790M GI50.

Where two headings read alike, the source gives them in different places.

Take `CN(C)[C@H]1CCN(c2ccc3nc4n(c3c2)C23CCC(CN(CCOc5c(cnn5C)-c5cc(cn(C)c5=O)C(=O)N4)C2)C3)C1` (single isomer, unassigned) [Example A66A]: the GI50 was 177 nM in assay [1] (setting [2]); 466 nM in assay [1] (setting [3]); 1140 nM in assay [1] (setting [4]); 709 nM in assay [1] (setting [5]); 600 nM in assay [1] (setting [6]); 2130 nM in assay [1] (setting [7]). In addition, the GI50 in assay [1] (setting [8]) was determined as 622 nM; in the assay on PC-9, 705 nM.
Take `CN1CC2(CCN(c3ccc4nc5n(c4c3)C34CCC(CN(CCOc6c(cnn6C)-c6cc(cn(C)c6=O)C(=O)N5)C3)C4)C2)C1` (single isomer, unassigned) [Example A73A]: the GI50 came to 94 nM in assay [1] (setting [2]); 302 nM in assay [1] (setting [3]); 550 nM in assay [1] (setting [4]); 357 nM in assay [1] (setting [5]); 184 nM in assay [1] (setting [6]); 1100 nM in assay [1] (setting [7]). Also, the GI50 is 190 nM in assay [1] (setting [8]) and 515 nM in the assay with PC-9.
Turning to `CN1CCN(C2CCN(c3ccc4nc5n(c4c3)C34CCC(CN(CCOc6c(cnn6C)-c6cc(cn(C)c6=O)C(=O)N5)C3)C4)C2)CC1` (single isomer, unassigned) [Example A80A, 15,21-Dimethyl-5-[3-(4-methylpiperazin-1-yl)pyrrolidin-1-yl]-23-oxa-2,9,11,15,20,21,26-heptaazaheptacyclo[24.4.1.1^{1,28}.1^{13,17}.0^{2,10}.0^{3,8}.0^{18,22}]tritriaconta-3,5,7,9,13,17(33),18(22),19-octaene-12,16-dione], the GI50 came out at 135 nM in assay [1] (setting [2]); 587 nM in assay [1] (setting [3]); 312 nM in assay [1] (setting [4]); 193 nM in assay [1] (setting [5]); 523 nM in assay [1] (setting [6]); 450 nM in assay [1] (setting [7]). Also, the GI50 in assay [1] (setting [8]) was determined as 477 nM; in the assay on PC-9 it was 295 nM.
Turning to `CN(C)CC1(F)CN(c2ccc3nc4n(c3c2)C23CCC(CN(CCOc5c(cnn5C)-c5cc(cn(C)c5=O)C(=O)N4)C2)C3)C1` (single isomer, unassigned) [Example A72A], the GI50 in assay [1] (setting [2]) stood at 351 nM; in assay [1] (setting [3]), 1060 nM; in assay [1] (setting [4]), 866 nM; in assay [1] (setting [5]), 632 nM; in assay [1] (setting [6]) it was 1820 nM; in assay [1] (setting [7]), 2770 nM. The GI50 in assay [1] (setting [8]) amounted to 1230 nM; in the assay on PC-9 it was 1060 nM.
Regarding `C[C@@H]1CCCOc2c(cnn2C)-c2cc(cn(C3CC3)c2=O)C(=O)Nc2nc3ccc(N4CCN(C)CC4)cc3n2C1` [Example A15, (11R)-26-cyclopropyl-5,11-dimethyl-16-(4-methylpiperazin-1-yl)-7-oxa-4,5,13,20,22,26-hexaazapentacyclo[22.3.1.0^{2,6}.0^{13,21}.0^{14,19}]octacosa-1(28),2(6),3,14,16,18,20,24-octaene-23,27-dione], the GI50 in assay [1] (Mus musculus, BaF3, 72 h, BaF3 cells, EGFR DEL19-C797S, read-out: DEL19-C797S/BaF3 GI50) is 495 nM; in assay [1] (Mus musculus, BaF3, 72 h, BaF3 cells, EGFR DEL19-T790-C797S, read-out: DEL19-T790-C797S/BaF3 GI50), 2100 nM; in assay [1] (Mus musculus, BaF3, 72 h, BaF3 cells, EGFR L858R, read-out: L858R/BaF3 GI50), 1390 nM; in assay [1] (Mus musculus, BaF3, 72 h, BaF3 cells, EGFR L858R-C797S, read-out: L858R-C797S/BaF3 GI50), 1580 nM; in assay [1] (Mus musculus, BaF3, 72 h, BaF3 cells, EGFR L858R-T790-C797S, read-out: L858R-T790-C797S/BaF3 GI50), 4910 nM; in assay [1] (Mus musculus, BaF3, 72 h, BaF3 cells, EGFR L858R-T790M, read-out: L858R-T790M/BaF3 GI50), 1550 nM. In addition, the GI50 in assay [1] (Mus musculus, BaF3, 72 h, EGFR DEL19-T790M, read-out: DEL19-T790M GI50) turned out to be 2620 nM; in the assay with PC-9 (Homo sapiens, PC-9, 72 h) it was 2070 nM.
As to `CN(C)[C@@H]1CCN(c2ccc3nc4n(c3c2)C23CCC(CN(CCOc5c(cnn5C)-c5cc(cn(C)c5=O)C(=O)N4)C2)C3)C1` (single isomer, unassigned) [Example A66C], the GI50 in assay [1] (setting [2]) was 156 nM; in assay [1] (setting [3]) it was 548 nM; in assay [1] (setting [4]), 1580 nM; in assay [1] (setting [5]) it was 688 nM; in assay [1] (setting [6]), 549 nM; in assay [1] (setting [7]), 1520 nM. The GI50 in assay [1] (setting [8]) is 723 nM; in the assay with PC-9, 703 nM.
`CN1CCN(C2CCN(c3ccc4nc5n(c4c3)C34CCC(CN(CCOc6c(cnn6C)-c6cc(cn(C)c6=O)C(=O)N5)C3)C4)C2)CC1` (single isomer, unassigned) [Example A80B2, 15,21-Dimethyl-5-[3-(4-methylpiperazin-1-yl)pyrrolidin-1-yl]-23-oxa-2,9,11,15,20,21,26-heptaazaheptacyclo[24.4.1.1^{1,28}.1^{13,17}.0^{2,10}.0^{3,8}.0^{18,22}]tritriaconta-3,5,7,9,13,17(33),18(22),19-octaene-12,16-dione]: the GI50 in assay [1] (setting [2]) amounted to 0.5 nM; in assay [1] (setting [3]), 0.7 nM; in assay [1] (setting [4]) it was 0.63 nM; in assay [1] (setting [5]) it was 0.5 nM; in assay [1] (setting [6]) it was 0.73 nM; in assay [1] (setting [7]), 0.67 nM. For the same compound, the figures for the GI50 (in assay [1] (setting [8]); in the assay on PC-9) were 0.7 nM and 3.6 nM, respectively.
